Entries after “also recorded” stand apart in the source; their conditions may differ. Like-named read-outs stand apart in the source and are kept apart here.
Legend:
[1] = test system: BALB/c mice; experiment: LPS airway inflammation, 6 hour time point; conditions: 6 hours after LPS
[2] = test system: BALB/c mice; experiment: House dust mite/Rhinovirus exacerbated asthma model; assay type: in vivo, mouse; conditions: 24 hours post RV1b infection
Method: Study performed at the University of Newcastle under local ethics committee. BALB/c mice were sensitized and challenged intranasally to 50 μg of crude HDM extract (Dermatophagoides pteronyssinus extract was obtained from Greer Laboratories) on days 0, 1 and 2 followed by four exposures of 5 μg HDM daily from day 14 to day 17 delivered in 50 μl of sterile saline. Animals were then infected on day 18 with infective Human Rhinovirus 1b RV1B41 (2.5 × 10^6 median tissue culture infective dose) intranasally. Mice were intranasally administered 50 μl infective or ultraviolet light (UV)–inactivated RV1B41. Mice were euthanized 24 hours after the rhinovirus challenge. BAL analysis was performed for total and differential counts and airway hyperreactivity (AHR) was assessed invasively by measurement of total lung resistance and dynamic compliance (BUXCO) in response to methacholine challenge as previously described. […]. Dose of azithromycin was chosen based on previously described findings, in respiratory viral infection models.

[3] = Pharmacokinetics in BALB/c mice; assay type: in vivo; conditions: mouse; for Cmax: read-out: Apparent concentration at curve maximum Cmax
Method: Studies were performed by ICP Firefly, Pharmalegacy and Sundia with local ethics approval. […] Plasma was analyzed for PXS-4728A by high-performance liquid chromatography-mass spectrometry/mass spectrometry. Basic pharmacokinetic parameters were estimated using PK Solutions software (Summit Research Services).

[4] = biological target: carbonic anhydrase II (Homo sapiens, UniProt P00918); experiment: Carbonic anhydrase II activity; assay type: biochemical
[5] = biological target: T1, VAP-1/SSAO in gonadal fat tissue homogenate (Oryctolagus cuniculus, UniProt A0A5F9CS97); experiment: SSAO activity, gonadal fat tissue homogenate; assay type: biochemical; conditions: rabbit
T1 sequence (A0A5F9CS97 1-763): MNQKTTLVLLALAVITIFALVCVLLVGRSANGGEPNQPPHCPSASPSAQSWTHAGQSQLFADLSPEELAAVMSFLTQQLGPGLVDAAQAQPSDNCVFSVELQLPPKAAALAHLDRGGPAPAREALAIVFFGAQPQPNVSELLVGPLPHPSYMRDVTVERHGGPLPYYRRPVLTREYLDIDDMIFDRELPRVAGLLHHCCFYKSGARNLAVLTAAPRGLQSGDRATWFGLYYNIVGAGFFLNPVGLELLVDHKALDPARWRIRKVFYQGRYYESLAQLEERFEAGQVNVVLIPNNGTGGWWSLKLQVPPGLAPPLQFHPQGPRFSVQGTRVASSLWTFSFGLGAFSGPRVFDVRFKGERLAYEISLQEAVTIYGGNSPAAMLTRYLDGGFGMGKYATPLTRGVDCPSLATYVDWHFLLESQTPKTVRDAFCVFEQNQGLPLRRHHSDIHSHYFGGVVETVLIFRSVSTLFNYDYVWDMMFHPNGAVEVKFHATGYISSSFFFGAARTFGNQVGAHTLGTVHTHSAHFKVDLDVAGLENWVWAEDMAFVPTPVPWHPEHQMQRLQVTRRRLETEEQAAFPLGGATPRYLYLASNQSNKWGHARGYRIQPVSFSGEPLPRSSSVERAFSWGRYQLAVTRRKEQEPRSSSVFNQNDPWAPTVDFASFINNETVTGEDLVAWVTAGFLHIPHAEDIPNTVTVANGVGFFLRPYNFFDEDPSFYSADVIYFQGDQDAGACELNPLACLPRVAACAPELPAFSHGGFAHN

[6] = test system: C57/BL6 mice; experiment: Cecal ligation and puncture (CLP) induced sepsis
[7] = test system: BALB/c mice; experiment: Klebsiella pneumoniae lung infection
[8] = Plasma stability; assay type: in vitro ADME; conditions: human plasma, 1 hour incubation
[9] = biological target: T2, Recombinant retina specific amine oxidase (AOC2) (Homo sapiens, UniProt O75106); experiment: AOC2 enzyme activity assay; assay type: biochemical
T2 sequence (O75106 1-756): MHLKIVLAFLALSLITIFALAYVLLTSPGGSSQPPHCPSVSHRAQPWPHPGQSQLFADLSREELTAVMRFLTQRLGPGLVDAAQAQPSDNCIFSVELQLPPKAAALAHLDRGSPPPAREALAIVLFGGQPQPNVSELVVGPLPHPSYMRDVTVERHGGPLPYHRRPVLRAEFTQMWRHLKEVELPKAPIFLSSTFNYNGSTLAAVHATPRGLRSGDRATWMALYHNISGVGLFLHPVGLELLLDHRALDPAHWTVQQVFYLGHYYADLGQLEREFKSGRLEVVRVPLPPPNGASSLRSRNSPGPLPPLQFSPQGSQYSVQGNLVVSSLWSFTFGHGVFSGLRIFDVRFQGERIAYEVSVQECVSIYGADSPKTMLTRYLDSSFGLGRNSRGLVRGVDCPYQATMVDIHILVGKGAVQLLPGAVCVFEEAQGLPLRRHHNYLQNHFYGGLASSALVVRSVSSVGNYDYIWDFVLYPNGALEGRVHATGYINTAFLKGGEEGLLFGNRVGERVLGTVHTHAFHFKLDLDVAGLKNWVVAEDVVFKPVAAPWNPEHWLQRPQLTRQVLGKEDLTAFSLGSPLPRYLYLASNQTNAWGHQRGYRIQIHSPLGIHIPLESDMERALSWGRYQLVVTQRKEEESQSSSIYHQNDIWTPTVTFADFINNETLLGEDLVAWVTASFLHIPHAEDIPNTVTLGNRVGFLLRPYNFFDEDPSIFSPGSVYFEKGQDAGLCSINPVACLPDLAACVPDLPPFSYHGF

[10] = 6 hours, 6 mg.kg^−1 oral 1 hour prior to surgery
[11] = 6 hours, PXS-4728A 6 mg.kg^−1, dexamethasone 5 mg.kg^−1, oral 1 hour prior to surgery
[12] = 24 hours, PXS-4728A 6 mg.kg^−1, dexamethasone 10 mg.kg^−1, oral 1 hour prior to infection

CC(C)(C)NC(=O)c1ccc(OC/C(=C/F)CN)cc1 [PXS-4728A]
Influx of neutrophils in BALF ([1]; PXS-4728A 0.2 or 2 mg.kg^−1, dexamethasone 10 mg.kg^−1, oral 1 hour prior): dampened migration significantly; also recorded: concentration-dependently reduced
Influx of total cells in BALF ([1]; PXS-4728A 0.2 or 2 mg.kg^−1 oral 1 hour prior): concentration-dependently reduced
Airways hyperreactivity to methacholine challenge ([2]; PXS-4728A 2, azithromycin 25 mg.kg^−1 ip.): significantly reduced
Total BALF neutrophils ([2]; PXS-4728A 2, dexamethasone 2, azithromycin 25 mg.kg^−1 ip.): reduced
bioavailability ([3]; BALB/c, plasma, oral, 10 mg.kg^−1, mouse, oral 10 mg.kg^−1 / i.v. 5 mg.kg^−1): > 90%
Cmax ([3]; BALB/c, plasma, intravenous 5 mg.kg^−1): 1600 ng/mL
half-life ([3]; BALB/c, plasma, intravenous 5 mg.kg^−1, read-out: Apparent half-life, t1/2 (converted)): 36 min
clearance ([3]; BALB/c, plasma, intravenous 5 mg.kg^−1, read-out: Clearance CL): 80 mL/min/kg
Cmax ([3]; BALB/c, plasma, oral 10 mg.kg^−1): 1380 ng/mL
Tmax ([3]; BALB/c, plasma, oral 10 mg.kg^−1, read-out: Time of maximal concentration Tmax): 15 min
Clearance CL ([3]; oral 10 mg.kg^−1): 98 mL·kg/min
Bioavailability (%) ([3]; oral 10 mg.kg^−1 / i.v. 5 mg.kg^−1): 92%
Activity for carbonic anhydrase II [4]: removing all activity
IC50 [5]: < 10 nM
Myeloperoxidase in the lung [6, 10]: reduction
Neutrophils in bronchoalveolar lavage [6, 10]: reduction
Total cells in bronchoalveolar lavage [6, 10]: reduction
Peritoneal neutrophils [6, 11]: not affected
Total peritoneal inflammatory cells [6, 11]: not affected
Survival rate ([6]; treated 1 hour prior and daily thereafter, control animals 50%, p = 0.057): 90%
Neutrophil migration into the airway spaces (BALF) [7, 12]: significantly dampened
Total leukocyte migration into the airway spaces (BALF) [7, 12]: significantly dampened
Log 10-CFU in the lung (bacterial load), average ([7]; 24 hours, PXS-4728A 6 mg.kg^−1, dexamethasone 10 mg.kg^−1, vehicle 7.59): 8.27 LOG 10-CFU
Survival ([7]; treated 1 hour prior to infection and daily thereafter): not compromised
Plasma stability, remaining [8]: > 90%
IC50 [9]: 2760 nM

Source: paper PMC4389443 (Respiratory Research, 2015)
